Laboratory results from patent US20140206682A1, “COMPOUNDS AND COMPOSITIONS AS PDGFR KINASE INHIBITORS” (NOVARTIS PHARMACEUTICALS UK LIMITED, priority 2011, published 2014).

What follows are compounds tested on PDGFR (assay: Rat A10 cell proliferation assay). Details: Table 1; Rat A10 cells, recombinant rat PDGF-BB, CellTiter-Glo after 68 hours.
Type: cell-based
Description: Compounds of Formula (I) provided herein were assayed to measure their capacity to inhibit c-kit and PDGFR kinases using the appropriate assay described below: c-Kit inhibition was evaluated using the Mo7e cell proliferation assay, and PDGFR inhibition was evaluated using the Rat A10 cell proliferation assay and the Human TG/HA-VSMC cell proliferation assay.
Rat A10 cells (ATCC) were resuspended in DMEM supplemented with 1% FBS and 10 ng/mL recombinant rat PDGF-BB at 20,000 cells/mL. The cells were aliquoted into 384 well plates at 50 μL/well and incubated for 4 hours at 37° C. 0.5 μL of test compound 3-fold serially diluted in DMSO was added to each well. The plates were returned to the incubator for a further 68 hours. 25 μL of CellTiter-Glo (Promega) was added to each well and the plates were incubated on the bench for 15 minutes. Luminescence was then read using a CLIPR CCD camera (Molecular Devices).

Row | SMILES | IC50 [nM]
1 | CN(C)CCCOc1ccc(-c2ccn3c(C(=O)Nc4cc(C(=O)NC5Cc6ccccc6C5O)ccc4F)cnc3c2)cn1 (stereo not drawn) [F13, 7-{6-[3-(dimethylamino)propoxy]pyridin-3-yl}-N-{2-fluoro-5-[(1-hydroxy-2,3-dihydro-1H-inden-2-yl)carbamoyl]phenyl}imidazo[1,2-a]pyridine-3-carboxamide] | 56
2 | Cn1nccc1-c1ccn2c(C(=O)Nc3cc(C(=O)NC4Cc5ccccc5C4O)ccc3F)cnc2c1 (stereo not drawn) [F14, N-{2-fluoro-5-[(1-hydroxy-2,3-dihydro-1H-inden-2-yl)carbamoyl]phenyl}-7-(1-methyl-1H-pyrazol-5-yl)imidazo[1,2-a]pyridine-3-carboxamide] | 32
3 | Cn1nccc1-c1ccn2c(C(=O)Nc3cc(C(=O)N[C@@H]4Cc5ccccc5[C@@H]4O)ccc3F)cnc2c1 [F15, N-(2-fluoro-5-{[(1S,2R)-1-hydroxy-2,3-dihydro-1H-inden-2-yl]carbamoyl}phenyl)-7-(1-methyl-1H-pyrazol-5-yl)imidazo[1,2-a]pyridine-3-carboxamide] | 44
4 | Cn1nccc1-c1ccn2c(C(=O)Nc3cc(C(=O)N[C@H]4Cc5ccccc5[C@H]4O)ccc3F)cnc2c1 [F16, N-(2-fluoro-5-{[(1R,2S)-1-hydroxy-2,3-dihydro-1H-inden-2-yl]carbamoyl}phenyl)-7-(1-methyl-1H-pyrazol-5-yl)imidazo[1,2-a]pyridine-3-carboxamide] | 57
5 | Cc1ccc2ncc(C(=O)Nc3cc(C(=O)N[C@@H]4c5ccccc5C[C@@H]4O)ccc3F)n2c1 [F17, N-(2-fluoro-5-{[(1R,2S)-2-hydroxy-2,3-dihydro-1H-inden-1-yl]carbamoyl}phenyl)-6-methylimidazo[1,2-a]pyridine-3-carboxamide] | 60
6 | O=C(N[C@@H]1c2ccccc2C[C@@H]1O)c1ccc(F)c(NC(=O)c2cnc3cc(F)ccn23)c1 [F18, 7-fluoro-N-(2-fluoro-5-{[(1R,2S)-2-hydroxy-2,3-dihydro-1H-inden-1-yl]carbamoyl}phenyl)imidazo[1,2-a]pyridine-3-carboxamide] | 86
7 | COc1ccc2ncc(C(=O)Nc3cc(C(=O)N[C@@H]4c5ccccc5C[C@@H]4O)ccc3F)n2c1 [F19, N-(2-fluoro-5-{[(1R,2S)-2-hydroxy-2,3-dihydro-1H-inden-1-yl]carbamoyl}phenyl)-6-methoxyimidazo[1,2-a]pyridine-3-carboxamide] | 82
8 | Cc1ccc(C(=O)N[C@@H]2c3ccccc3C[C@@H]2O)cc1NC(=O)c1cnc2ccccn12 [F20, N-(5-{[(1R,2S)-2-hydroxy-2,3-dihydro-1H-inden-1-yl]carbamoyl}-2-methylphenyl)imidazo[1,2-a]pyridine-3-carboxamide] | 29
9 | Cc1ccc(C(=O)N[C@H]2c3ccccc3C[C@H]2O)cc1NC(=O)c1cnc2ccccn12 [F21, N-(5-{[(1S,2R)-2-hydroxy-2,3-dihydro-1H-inden-1-yl]carbamoyl}-2-methylphenyl)imidazo[1,2-a]pyridine-3-carboxamide] | 95
10 | Cc1ccc(C(=O)N[C@@H]2c3ccccc3C[C@H]2O)cc1NC(=O)c1cnc2ccccn12 [F22, N-(5-{[(1R,2R)-2-hydroxy-2,3-dihydro-1H-inden-1-yl]carbamoyl}-2-methylphenyl)imidazo[1,2-a]pyridine-3-carboxamide] | 28
11 | Cc1ccc(C(=O)N[C@H]2c3ccccc3C[C@@H]2O)cc1NC(=O)c1cnc2ccccn12 [F23, N-(5-{[(1S,2S)-2-hydroxy-2,3-dihydro-1H-inden-1-yl]carbamoyl}-2-methylphenyl)imidazo[1,2-a]pyridine-3-carboxamide] | 21
12 | O=C(N[C@@H]1CCCC[C@H]1CO)c1ccc(F)c(NC(=O)c2cnc3ccccn23)c1 [F24, N-(2-fluoro-5-{[(1R,2R)-2-(hydroxymethyl)cyclohexyl]carbamoyl}phenyl)imidazo[1,2-a]pyridine-3-carboxamide] | 94
13 | [2H]c1c([2H])c([2H])n2c(C(=O)Nc3cc(C(=O)N[C@@H]4c5ccccc5C[C@@H]4O)ccc3F)cnc2c1[2H] [F25, N-(2-fluoro-5-{[(1R,2S)-2-hydroxy-2,3-dihydro-1H-inden-1-yl]carbamoyl}phenyl)-5,6,7,8-tetrahydrogenioimidazo[1,2-a]pyridine-3-carboxamide] | 65
14 | Cc1ccn2c(C(=O)Nc3cc(C(=O)N[C@@H]4c5ccccc5C[C@@H]4O)ccc3F)cnc2c1 [F26, N-(2-fluoro-5-{[(1R,2S)-2-hydroxy-2,3-dihydro-1H-inden-1-yl]carbamoyl}phenyl)-7-methylimidazo[1,2-a]pyridine-3-carboxamide] | 49
15 | O=C(N[C@@H]1c2ccccc2C[C@@H]1O)c1ccc(F)c(NC(=O)c2cnc3ccc(F)cn23)c1 [F27, 6-fluoro-N-(2-fluoro-5-{[(1R,2S)-2-hydroxy-2,3-dihydro-1H-inden-1-yl]carbamoyl}phenyl)imidazo[1,2-a]pyridine-3-carboxamide] | 168
16 | Cc1ccc2ncc(C(=O)Nc3cc(C(=O)N[C@@H]4c5ccc(F)cc5C[C@@H]4O)ccc3F)n2c1 [F28, N-(2-fluoro-5-{[(1R,2S)-5-fluoro-2-hydroxy-2,3-dihydro-1H-inden-1-yl]carbamoyl}phenyl)-6-methylimidazo[1,2-a]pyridine-3-carboxamide] | 129
17 | Cc1ccc2ncc(C(=O)Nc3cc(C(=O)N[C@@H]4c5cc(F)ccc5C[C@@H]4O)ccc3F)n2c1 [F29, N-(2-fluoro-5-{[(1R,2S)-6-fluoro-2-hydroxy-2,3-dihydro-1H-inden-1-yl]carbamoyl}phenyl)-6-methylimidazo[1,2-a]pyridine-3-carboxamide] | 105
18 | Cc1ccc(C(=O)NCc2ccccc2N2CCCC(O)C2)cc1NC(=O)c1cnc2ccccn12 (stereo not drawn) [F30, N-[5-({[2-(3-hydroxypiperidin-1-yl)phenyl]methyl}carbamoyl)-2-methylphenyl]imidazo[1,2-a]pyridine-3-carboxamide] | 27
19 | Cc1ccc(C(=O)NCc2ccccc2N2CCC(O)C2)cc1NC(=O)c1cnc2ccccn12 (stereo not drawn) [F31, N-[5-({[2-(3-hydroxypyrrolidin-1-yl)phenyl]methyl}carbamoyl)-2-methylphenyl]imidazo[1,2-a]pyridine-3-carboxamide] | 42

Same assay, conditions: Table 2; Rat A10 cells, recombinant rat PDGF-BB, CellTiter-Glo after 68 hours

Row | SMILES | IC50 [nM]
20 | COc1ccc2ncc(C(=O)Nc3cc(C(=O)N[C@H]4c5ccccc5C[C@H]4O)ccc3F)n2c1 [F35, N-(2-fluoro-5-{[(1S,2R)-2-hydroxy-2,3-dihydro-1H-inden-1-yl]carbamoyl}phenyl)-6-methoxyimidazo[1,2-a]pyridine-3-carboxamide] | 228
21 | Cc1ccc2ncc(C(=O)Nc3cc(C(=O)N[C@H]4c5ccccc5C[C@H]4O)ccc3F)n2c1 [F36, N-(2-fluoro-5-{[(1S,2R)-2-hydroxy-2,3-dihydro-1H-inden-1-yl]carbamoyl}phenyl)-6-methylimidazo[1,2-a]pyridine-3-carboxamide] | 234
22 | O=C(N[C@@H]1Cc2ccccc2[C@H]1O)c1ccc(F)c(NC(=O)c2cnc3ccccn23)c1 [F37, N-(2-fluoro-5-{[(1R,2R)-1-hydroxy-2,3-dihydro-1H-inden-2-yl]carbamoyl}phenyl)imidazo[1,2-a]pyridine-3-carboxamide] | 242
23 | O=C(N[C@@H]1Cc2ccccc2[C@@H]1O)c1ccc(F)c(NC(=O)c2cnc3ccccn23)c1 [F38, N-(2-fluoro-5-{[(1S,2R)-1-hydroxy-2,3-dihydro-1H-inden-2-yl]carbamoyl}phenyl)imidazo[1,2-a]pyridine-3-carboxamide] | 248
24 | CN(C)CCCOc1ccc(-c2ccn3c(C(=O)Nc4cc(C(=O)N[C@@H]5Cc6ccccc6[C@@H]5O)ccc4F)cnc3c2)cn1 [F39, 7-{6-[3-(dimethylamino)propoxy]pyridin-3-yl}-N-(2-fluoro-5-{[(1S,2R)-1-hydroxy-2,3-dihydro-1H-inden-2-yl]carbamoyl}phenyl)imidazo[1,2-a]pyridine-3-carboxamide] | 252
25 | O=C(N[C@H](CO)CC1CCCCC1)c1cccc(NC(=O)c2cnc3ccccn23)c1 [F48, N-(3-{[(2S)-1-cyclohexyl-3-hydroxypropan-2-yl]carbamoyl}phenyl)imidazo[1,2-a]pyridine-3-carboxamide] | 363
26 | CCC[C@@H](CO)NC(=O)c1ccc(F)c(NC(=O)c2cnc3ccccn23)c1 [F49, N-(2-fluoro-5-{[(2S)-1-hydroxypentan-2-yl]carbamoyl}phenyl)imidazo[1,2-a]pyridine-3-carboxamide] | 373
27 | O=C(N[C@H]1CCCC[C@H]1O)c1ccc(F)c(NC(=O)c2cnc3ccccn23)c1 [F50, N-(2-fluoro-5-{[(1S,2R)-2-hydroxycyclohexyl]carbamoyl}phenyl)imidazo[1,2-a]pyridine-3-carboxamide] | 373
28 | O=C(N[C@H]1CCCC[C@@H]1CO)c1ccc(F)c(NC(=O)c2cnc3ccccn23)c1 [F51, N-(2-fluoro-5-{[(1S,2S)-2-(hydroxymethyl)cyclohexyl]carbamoyl}phenyl)imidazo[1,2-a]pyridine-3-carboxamide] | 387
29 | O=C(NC12C[C@@H]3C[C@@H](CC(O)(C3)C1)C2)c1ccc(F)c(NC(=O)c2cnc3ccccn23)c1 [F52, N-(2-fluoro-5-{[(5R,7S)-3-hydroxyadamantan-1-yl]carbamoyl}phenyl)imidazo[1,2-a]pyridine-3-carboxamide] | 422
30 | O=C(NC1Cc2ccccc2C1O)c1ccc(F)c(NC(=O)c2cnc3ccccn23)c1 (stereo not drawn) [F53, N-{2-fluoro-5-[(1-hydroxy-2,3-dihydro-1H-inden-2-yl)carbamoyl]phenyl}imidazo[1,2-a]pyridine-3-carboxamide] | 433
